Source: patent US9493836B2, “Method for diagnosing hematological disorders” (UNIVERSITE FRANCOIS RABELAIS DE TOURS, priority 2010, dated 2016)
“Also recorded” adds a separate entry of the source.

Key:
[1] = system: AML and high grade MDS; conditions: background statement; cited from earlier work
[2] = system: AML sample; experiment: In vitro treatment of an AML sample with a demethylating agent; expression level of genes SEQ ID NO: 1-24 by qRT-PCR (oxydogram); assay type: cell-based, human; conditions: AML sample of one patient treated in vitro, compared with same untreated AML sample (FIG. 8)
Text: Three micrograms of total RNA from each sample were reverse transcribed using the SuperScript® VILO™ cDNA Synthesis kit (Invitrogen) according to the protocol of the supplier. The relative quantification of gene expression was done by real-time PCR on the LightCycler® 480 microwell plate-based cycler platform (Roche Applied Science) using Universal ProbeLibrary assays designed with the ProbeFinder software (Roche Applied Science, www.roche-applied-science.com/sis/rtper/upl/ezhome.html). Primers were purchased from Invitrogen and Universal ProbeLibrary probes from Roche Applied Science. The nucleotide sequences of the primers and probes of each target are shown in Table A. All targets were concomitantly analyzed. qRT-PCR reactions were carried out in a total volume of 10 μL on 20 ng of cDNA using LightCycler® 480 Probes Master (Roche Applied Science). The LightCycler® 480 was programmed to an initial denaturation (95° C., 10 min) following by 45 cycles of 10 sec at 95° C., 30 sec at 60° C., 1 sec at 72° C. and a final cooling step at 40° C. for 10 sec. All reactions were run in triplicate, and average values were used for quantification. Results were analyzed by the relative quantification method (ΔΔCT=ΔCTpatient−ΔCTreference) using the Cycle threshold (CT) values determined with the LightCycler® 480 software (release 1.5.0) from Roche Applied Science. […]

In the case of `Nc1ncn([C@H]2C[C@H](O)[C@@H](CO)O2)c(=O)n1` [decitabine, 5-azadeoxycytidine], the “share of AML and high grade MDS sensitive to the agents' effects” value [1] is listed as “about 30%”.
For `Nc1ncn([C@@H]2O[C@H](CO)[C@@H](O)[C@H]2O)c(=O)n1` [azacytidine, 5-azacytidine], the “modulation of the expression level (ratio) of the genes SEQ ID NO: 1-24” value [2] is given as “can modulate the expression ratio of the genes SEQ ID NO: 1-24; also recorded: modify the expression level of the genes” and the “share of AML and high grade MDS sensitive to the agents' effects” value [1] is given as “about 30%”.
